Results as given in patent US20250177290A1, “DRUG-ELUTING SURGICAL ARTICLES AND METHODS OF USE THEREOF” (BIOSAPIEN INC., priority 2022, published 2025).

System: CT26 colorectal carcinoma murine model
Details: mouse, in vivo
Description: Efficacy was tested in murine model (BSPN02). CT26 colorectal cell lines in a murine model were chosen to conduct toxicity and safety studies in-vivo. The safety profile of Biomaterial-5-FU was compared with other control groups, and five aspects were evaluated as follows: (i) change in the body weight over time, (ii) organ weight and the ratio of organ to body weight, (iii) Hematoxylin-Eosin (H & E) staining for histological changes, (iv) a hepatic function panel, and (v) blood chemistry to assess impact on bone marrow. For H & E staining, five major organs (liver, heart, spleen, lungs, and kidneys) were collected from the mice at each time point. […] This toxic effect was not observed in mice treated with Biomaterial-5-FU. […] This toxic effect was not observed in mice treated with Biomaterial-5-FU.

With O=c1[nH]cc(F)c(=O)[nH]1 [IV 5-FU, 5-fluoro-1H-pyrimidine-2,4-dione] the “toxic effect: absolute numbers of white blood cells” value was “reduction in the absolute numbers of white blood cells” and the “toxic effect: number of monocytes and other leukocytes (bone marrow suppression)” value was “reduction in the number of monocytes and other leukocytes”.
